Drawing on BindingDB's records for doi:10.1016/0028-3908(94)90059-0 (University of Alberta, 1994), this text covers Ki for 21 compounds.

The target in experiment [1] is 5-hydroxytryptamine receptor 1D (Rattus norvegicus, UniProt P28565).
Experiment [2] deals with 5-hydroxytryptamine receptor 1B (Rattus norvegicus, UniProt P28564).
The target in experiment [3] is 5-hydroxytryptamine receptor 1B (Mus musculus, UniProt P28334).
For experiment [4], the target named is 5-hydroxytryptamine receptor 1B (Homo sapiens, UniProt P28222).
Sequence of 5-hydroxytryptamine receptor 1B (Homo sapiens, UniProt P28222) (P28222 whole entry): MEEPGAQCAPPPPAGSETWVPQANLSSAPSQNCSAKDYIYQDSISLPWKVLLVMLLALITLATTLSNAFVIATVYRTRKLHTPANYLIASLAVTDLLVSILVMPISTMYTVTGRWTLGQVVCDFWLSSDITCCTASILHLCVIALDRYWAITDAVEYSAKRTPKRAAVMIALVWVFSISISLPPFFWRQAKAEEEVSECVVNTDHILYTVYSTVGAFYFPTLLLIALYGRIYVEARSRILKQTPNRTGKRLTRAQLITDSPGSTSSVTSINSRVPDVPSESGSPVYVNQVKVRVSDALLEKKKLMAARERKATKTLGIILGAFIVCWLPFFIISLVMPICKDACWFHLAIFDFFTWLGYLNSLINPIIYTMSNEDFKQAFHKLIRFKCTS
In experiment [5] the target is 5-hydroxytryptamine receptor 2B (Rattus norvegicus, UniProt P30994).
Sequence of 5-hydroxytryptamine receptor 2B (P30994 whole entry): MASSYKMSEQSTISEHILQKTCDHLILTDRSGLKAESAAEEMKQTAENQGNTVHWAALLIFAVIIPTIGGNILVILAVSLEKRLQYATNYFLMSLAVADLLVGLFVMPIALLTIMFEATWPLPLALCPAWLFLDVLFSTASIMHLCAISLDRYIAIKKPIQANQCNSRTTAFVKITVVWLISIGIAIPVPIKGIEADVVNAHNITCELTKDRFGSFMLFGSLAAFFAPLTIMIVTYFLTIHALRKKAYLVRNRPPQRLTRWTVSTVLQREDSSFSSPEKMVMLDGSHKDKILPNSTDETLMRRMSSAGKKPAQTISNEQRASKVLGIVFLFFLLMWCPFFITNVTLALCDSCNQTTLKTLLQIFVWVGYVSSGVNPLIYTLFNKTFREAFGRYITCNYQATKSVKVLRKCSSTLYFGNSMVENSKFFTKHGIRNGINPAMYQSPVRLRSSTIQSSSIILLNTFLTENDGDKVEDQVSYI
The target in experiment [6] is 5-hydroxytryptamine receptor 7 (Mus musculus, UniProt P32304).
Sequence of 5-hydroxytryptamine receptor 7 (P32304 whole entry): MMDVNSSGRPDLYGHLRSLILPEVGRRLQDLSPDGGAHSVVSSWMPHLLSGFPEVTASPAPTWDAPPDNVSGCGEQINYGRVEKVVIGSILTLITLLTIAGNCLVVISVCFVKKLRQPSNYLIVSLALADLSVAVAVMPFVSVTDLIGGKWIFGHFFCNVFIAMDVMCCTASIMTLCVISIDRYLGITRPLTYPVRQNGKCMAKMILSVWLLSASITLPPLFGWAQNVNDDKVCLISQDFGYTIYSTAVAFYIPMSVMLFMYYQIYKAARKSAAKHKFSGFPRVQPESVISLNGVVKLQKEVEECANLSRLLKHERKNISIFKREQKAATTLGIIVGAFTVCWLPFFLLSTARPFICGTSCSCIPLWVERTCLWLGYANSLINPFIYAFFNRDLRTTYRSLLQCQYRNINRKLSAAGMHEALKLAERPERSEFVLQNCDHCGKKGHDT
Experiment [7] addresses T1, 5-hydroxytryptamine receptor 1F (Mus musculus, UniProt Q02284).
T1 sequence (Q02284 whole entry): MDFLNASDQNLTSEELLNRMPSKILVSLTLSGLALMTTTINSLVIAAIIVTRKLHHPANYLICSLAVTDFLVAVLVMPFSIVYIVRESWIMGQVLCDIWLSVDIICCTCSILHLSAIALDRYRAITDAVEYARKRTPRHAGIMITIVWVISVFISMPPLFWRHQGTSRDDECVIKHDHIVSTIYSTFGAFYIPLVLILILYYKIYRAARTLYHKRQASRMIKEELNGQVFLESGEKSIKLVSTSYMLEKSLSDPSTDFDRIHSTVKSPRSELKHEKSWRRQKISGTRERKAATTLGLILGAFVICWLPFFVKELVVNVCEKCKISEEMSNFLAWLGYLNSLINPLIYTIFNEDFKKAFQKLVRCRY

Experiment [8] has as its target 5-hydroxytryptamine receptor 1D (Canis lupus familiaris, UniProt P11614).

Several values for one entry are separate records, joined by “and”; a condition that tells them apart may be missing. Equal entries are not always repeated.

Sequence of 5-hydroxytryptamine receptor 1B (Rattus norvegicus, UniProt P28564) (P28564 whole entry): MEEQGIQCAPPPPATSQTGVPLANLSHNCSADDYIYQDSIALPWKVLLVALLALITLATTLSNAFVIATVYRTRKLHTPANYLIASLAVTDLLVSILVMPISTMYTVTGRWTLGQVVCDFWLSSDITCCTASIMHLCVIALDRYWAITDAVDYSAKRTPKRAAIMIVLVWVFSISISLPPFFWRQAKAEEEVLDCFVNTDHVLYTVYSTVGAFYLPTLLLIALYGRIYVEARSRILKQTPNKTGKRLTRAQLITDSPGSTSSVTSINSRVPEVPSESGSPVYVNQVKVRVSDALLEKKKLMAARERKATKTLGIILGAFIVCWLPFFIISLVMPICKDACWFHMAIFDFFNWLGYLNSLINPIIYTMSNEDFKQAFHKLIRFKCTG
Sequence of 5-hydroxytryptamine receptor 1D (Rattus norvegicus, UniProt P28565) (P28565 whole entry): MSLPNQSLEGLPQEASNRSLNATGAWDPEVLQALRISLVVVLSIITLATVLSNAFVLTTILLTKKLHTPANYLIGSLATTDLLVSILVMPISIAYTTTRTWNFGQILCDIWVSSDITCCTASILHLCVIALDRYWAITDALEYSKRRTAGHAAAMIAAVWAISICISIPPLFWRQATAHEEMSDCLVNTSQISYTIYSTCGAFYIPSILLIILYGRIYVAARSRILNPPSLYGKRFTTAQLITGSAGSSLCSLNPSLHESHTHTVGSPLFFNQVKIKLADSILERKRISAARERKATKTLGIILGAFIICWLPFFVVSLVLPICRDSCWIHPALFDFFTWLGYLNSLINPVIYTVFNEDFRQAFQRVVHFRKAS
Sequence of 5-hydroxytryptamine receptor 1D (Canis lupus familiaris, UniProt P11614) (P11614 whole entry): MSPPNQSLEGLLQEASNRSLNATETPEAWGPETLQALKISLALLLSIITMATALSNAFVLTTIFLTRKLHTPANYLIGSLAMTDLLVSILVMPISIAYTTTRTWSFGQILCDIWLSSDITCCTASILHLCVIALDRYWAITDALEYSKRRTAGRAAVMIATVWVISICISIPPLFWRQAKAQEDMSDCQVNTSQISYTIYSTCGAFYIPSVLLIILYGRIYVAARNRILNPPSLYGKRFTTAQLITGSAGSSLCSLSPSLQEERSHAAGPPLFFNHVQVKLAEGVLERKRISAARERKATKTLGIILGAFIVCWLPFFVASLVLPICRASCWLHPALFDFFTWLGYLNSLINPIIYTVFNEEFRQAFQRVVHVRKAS
Sequence of 5-hydroxytryptamine receptor 1B (Mus musculus, UniProt P28334) (P28334 whole entry): as the sequence (P28564 whole entry) above, with T15A, A23T, D33G, D152E, V192M, V270A, E272D, T385A counted along it

As usually defined, the Ki is a dissociation constant, usually derived from enzyme kinetics or from competition with a known ligand. A lower Ki goes with a stronger hold on the target. For `CC(C)(C)NCC(O)COc1cccc2[nH]c(C#N)cc12` (stereo not given) [NSC_155346], the inhibitory constant (Ki) in experiment [1] was determined as 36.3 nM; in experiment [2], 0.26 nM; in experiment [3], 2.51 nM; in experiment [4], 21.4 nM.

Take `Clc1cccc(N2CCNCC2)c1` [mCPP]: the Ki was 363 nM and 501 nM in experiment [4]; 26.9 nM in experiment [5].

For `CN1C[C@@H](NS(=O)(=O)N(C)C)C[C@@H]2c3cccc4c3c(cn4C)C[C@H]21` [MESULERGINE], the inhibitory constant (Ki) was 1290 nM and 631 nM in experiment [4]; 25.1 nM in experiment [6].

In the case of `Cn1cc(CCN)c2cc(O)ccc21` [5-HT,omega-N-Me], the Ki in experiment [5] was 10.5 nM.

For the compound `CN1CCN(c2nc3cc(C(F)(F)F)ccc3n3cccc23)CC1` [CAS_109028-10-6], the inhibitory constant (Ki) in experiment [1] worked out at 4.89 nM.

As for `CC(C)NCC(O)COc1cccc2[nH]ccc12` (stereo not given) [LB-46], the Ki in experiment [3] amounted to 63.1 nM.

As for `COc1ccc2[nH]cc(C3=CCNCC3)c2c1` [5-Methoxy-3-(1,2,3,6-tetrahydro-pyridin-4-yl)-1H-indole(RU-24969)], the Ki was 46.8 nM in experiment [1]; 1.58 nM and 2.57 nM and 0.36 nM in experiment [2]; 10 nM in experiment [3]; 158 nM in experiment [7]; 63.1 nM in experiment [8].

In experiment [5], `CC(C)n1cc2c3c(cccc31)C1CC(C(=O)NC3CCCCC3)CN(C)C1C2` (stereo not given) [NSC_60740] yielded a Ki of 10.7 nM.

In the case of `CCC(=O)c1ccc(N)cc1` [CAS_6270], in experiment [8], the affinity, expressed as Ki, was 34.7 nM.

In the case of `CN1CCc2cc(Cl)c(O)cc2[C@@H](c2ccccc2)C1` [SCH 23390,R(+)], the Ki in experiment [5] came out at 83.2 nM.

`CC(C)C[C@H]1C(=O)N2CCC[C@H]2[C@]2(O)O[C@](NC(=O)[C@@H]3C=C4c5cccc6[nH]c(Br)c(c56)C[C@H]4N(C)C3)(C(C)C)C(=O)N12` [Bromocriptine+ (GTP+)] had an inhibition constant Ki in experiment [6] of 126 nM.

Regarding `FC(F)(F)c1cccc(N2CCNCC2)c1` [TFMPP], the Ki in experiment [1] was found to be 58.9 nM; in experiment [5], 85.1 nM; in experiment [7], 794 nM.

Take `CCN(CC)C(=O)[C@@H]1C=C2c3cccc4[nH]c(Br)c(c34)C[C@H]2N(C)C1` [LSD,2-Bromo]: the inhibition constant Ki in experiment [5] was determined as 12.6 nM; in experiment [6] it was 10 nM.

Turning to `CN1CC(C(=O)N[C@]2(C)O[C@@]3(O)C4CCCN4C(=O)[C@H](Cc4ccccc4)N3C2=O)CC2c3cccc4[nH]cc(c34)CC21` (stereo partly drawn) [7-Methyl-4,6,6a,7,8,9,10,10a-octahydro-indolo[4,3-fg]quinoline-9-carboxylic acid ((2R,5S,10bS)-5-benzyl-10b-hydroxy-2-methyl-3,6-dioxo-octahydro-oxazolo[3,2-a]pyrrolo[2,1-c]pyrazin-2-yl)-amide], the Ki was found to be 0.06 nM in experiment [1] and 145 nM in experiment [5].

Turning to `CN(C)CCc1c[nH]c2ccc(O)cc12` [3-[2-(dimethylamino)ethyl]indol-5-ol], the Ki in experiment [7] was 31.6 nM.

`NCCc1c[nH]c2ccc(Br)cc12`: the affinity in experiment [5] corresponds to a Ki of 38.9 nM.

As to `COc1ccc2[nH]cc(CCN(C)C)c2c1` [3-(2-DIMETHYLAMINOETHYL)-5-METHOXYINDOLE], the affinity in experiment [8] corresponds to a Ki of 5.12 nM.

`CN1CCC(=C2c3ccccc3CCc3sccc32)CC1` [NSC_27400] had an inhibition constant (Ki) in experiment [5] of 38.9 nM.

Consider `CCN(CC)C(=O)[C@@H]1C=C2c3cccc4[nH]cc(c34)C[C@H]2N(C)C1` [(4R,7R)-N,N-diethyl-6-methyl-6,11-diazatetracyclo[7.6.1.0^{2,7}.0^{12,16}]hexadeca-1(16),2,9,12,14-pentaene-4-carboxamide], for which, in experiment [8], the Ki came to 12.6 nM.

With `Cc1cc(C(C)(C)C)c(O)c(C)c1CC1=NCCN1` [SMR000059324], the Ki in experiment [1] was 1.28 nM; in experiment [2], 2.51 nM and 0.81 nM.

For the compound `CN(C)CCCN1c2ccccc2Sc2ccc(Cl)cc21` [[3-(2-Chloro-phenothiazin-10-yl)-propyl]-dimethyl-amine(Chlorpromazine)], in experiment [6], the Ki is 5010 nM.
